# In patent publication US20230174584A1, “Antibiotic Compounds” (priority 2019, published 2023):
# Values joined by “and” are separate entries in the source; they are usually repeats but may differ in a detail not shown here. Equal values may be shown once. Read-outs that look alike come from different tables or passages of the source.
# What was measured:
# [1] = tested on: MRSA USA300 strain NRS384; assay: Efficacy, neutropenic mouse thigh infection; type: in vivo, Staphylococcus aureus (in CD1 mice); details: neutropenic mice, individual thighs, 23 h post treatment
# Procedure: (§1) Mouse studies were performed using pathogen-free CD1 mice (ICR), a well characterized outbred murine strain (supplied by Charles River, Margate UK). All mice were male and weighed 11-15 gram upon arrival. and were allowed to acclimatize for at least 7 days prior to study initiation. Mice were individually housed in sterilized ventilated cages supplied with HEPA filtered sterile air and aspen chip bedding (changed a minimum of once a week). Food and water was available ad libitum. The room temperature was 22° C. 1° C., with a 60% relative humidity and a maximum background noise of 56 dB. Mice were exposed to a 12 h light/dark cycle.
# Mice were made neutropenic by a subcutaneous injection of 150 mg kg^−1 and 100 mg kg^−1 cyclophosphamide 4 days and 1 day before infection respectively. Mice were infected in both thighs with MRSA USA300 strain NRS384 (1.47×10^6 CFU mL-1, 7.33×10^4 CFU per thigh) intramuscularly under temporary anesthesia. […] Pretreatment group was euthanized one hour after infection and the other treatment groups were euthanized […]. Weighted thighs were homogenized and cultured on MSA agar at 37° C. for 18-24 h followed by colony counting. Each group consisted of n=6 mice with both thighs infected (n=12 thighs per treatment group) and each thigh was treated as a separate sample. Data analysis was done with StatsDirect software v. 3.2.8 using non-parametric statistical models (Kruskal-Wallis using Conover-Inman to make all pairwise comparisons between groups).
# Colony forming units in neutropenic mice infected in each thigh with MRSA followed 1 h later by the first subcutaneous dose of antibiotic at concentrations indicated and subsequently the same dose at indicated intervals, with sacrifice and bacterial load determination in homogenized thighs at 23 h post treatment (24 h post infection). […] Data are mean±SEM (n=12, six mice per group, two thighs per mouse).
# [2] = tested on: E. faecium E155; details: Enterococcus faecium E155, strain description; cited from earlier work
# [3] = PK in naïve mice; type: in vivo; details: mouse, 3 mg kg^−1 subcutaneous; for Cmax: read-out: C0/Cmax
# Procedure: as §1
# Test article 5 was administered at 3 mg kg^−1 subcutaneously in naïve mice (n=3) that were not immunosuppressed or infected. Whole blood was collected from the tail vein at 5 min, 15 min, 30 min, 1 h, 2 h, 4 h and 8 h. The last sample was taken as a terminal cardiac puncture.
# [4] = tested on: VRE E155; assay: Resistance development serial passage assay; type: cell-based, Enterococcus faecium; details: VanA-type VRE strain serially passaged over 30 days in sub-lethal antibiotic concentrations
# Procedure: (§2) FIG. 3 illustrates the results obtained when selected compounds were assessed using a resistance development serial passage assay. A) Daily fold-increase of MIC compared to initial MIC against MRSA USA 300 grown in sub-lethal concentrations of daptomycin, compound 5 or compound 16 over 30 days. B). Daily fold-increase of MIC compared to initial MIC against VRE E155 grown in sub-lethal concentrations of daptomycin, compound 5 or compound 16 over 30 days.
# (§3) From glycerol stocks, bacterial strains were cultured on blood agar plates and incubated overnight at 37° C. A single colony was grown to exponential phase (OD600=0.5) in TSB+0.002% p80 and diluted 1:100 in fresh media. In polypropylene 96-well microtiter plates, antibiotics were added in biological triplicates and serial diluted 2-fold by transfer and mixing from one well to the next to achieve a final volume of 50 μL per well. An equal volume of bacterial suspension was added to the wells and plates were incubated overnight at 37° C. […] This procedure was repeated for 30 days and the MIC was recorded daily. Cultures containing daptomycin were supplemented with 50 mg L^−1 CaCl2 and 10 mg L^−1 MgSO4. The experiment was performed in biological replicates and for each replicate the MIC was determined from the median of a minimum of triplicates.
# [5] = tested on: MRSA USA 300; assay: Resistance development serial passage assay; type: cell-based, Staphylococcus aureus; details: MRSA serially passaged over 30 days in sub-lethal antibiotic concentrations
# Procedure: as §2, §3
# [6] = Tolerability in naïve mice; type: in vivo; details: 100 mg/kg (SC), two mice
# Procedure: as §1
# Tolerability of compound 5 was assessed at 100 mg kg^−1 subcutaneous injection (in 10% DMSO in water for injection) in naïve mice (n=2) that were not immunosuppressed or infected.
smiles,measurement,setting,value
"CN[C@H](CC(C)C)C(=O)N[C@H]1C(=O)N[C@@H](CC(N)=O)C(=O)N[C@H]2C(=O)N[C@H]3C(=O)N[C@H](C(=O)N[C@H](C(=O)O)c4cc(O)cc(O)c4-c4cc3ccc4O)[C@H](O)c3ccc(c(Cl)c3)Oc3cc2cc(c3O[C@@H]2O[C@H](CO)[C@@H](O)[C@H](O)[C@H]2O[C@H]2C[C@](C)(N)[C@H](O)[C@H](C)O2)Oc2ccc(cc2Cl)[C@H]1O [Vancomycin, reference compound]",Thigh burden,[1]; 25 mg kg^−1 q12h subcutaneous,2023 CFU g^−1 and 1148 CFU g^−1 and 142564 CFU g^−1 and 283390 CFU g^−1 and 1204 CFU g^−1 and 310 CFU g^−1 and BLD and 6736 CFU g^−1 and 106 CFU g^−1 and 825 CFU g^−1 and 1030 CFU g^−1
same,MIC vancomycin (strain description),[2],1020 µg/mL
CCCCCCCNC(N)=Nc1ccc(CN[C@@]2(C)C[C@H](O[C@H]3[C@H](Oc4c5cc6cc4Oc4ccc(cc4Cl)[C@@H](O)[C@@H](NC(=O)[C@@H](CC(C)C)NC)C(=O)N[C@@H](CC(N)=O)C(=O)N[C@H]6C(=O)N[C@H]4C(=O)N[C@H](C(=O)N[C@H](C(=O)O)c6cc(O)cc(O)c6-c6cc4ccc6O)[C@H](O)c4ccc(c(Cl)c4)O5)O[C@H](CO)[C@@H](O)[C@@H]3O)O[C@@H](C)[C@H]2O)cc1 [Compound 5],Thigh burden,[1]; 3 mg kg^−1 q6h subcutaneous,113 CFU g^−1 (2×) and 368 CFU g^−1 and 456 CFU g^−1 and 9139 CFU g^−1 and 666 CFU g^−1 and 350 CFU g^−1 and 587 CFU g^−1 and 75 CFU g^−1 and 42132 CFU g^−1 and 7735 CFU g^−1 and 3885 CFU g^−1
same,Thigh burden,[1]; 10 mg kg^−1 q6h subcutaneous,368 CFU g^−1 and 35 CFU g^−1 and 77 CFU g^−1 and 96 CFU g^−1 and 76 CFU g^−1 and 40 CFU g^−1 and BLD (2×) and 158 CFU g^−1 and 7984 CFU g^−1 and 81 CFU g^−1 and 34 CFU g^−1
same,AUC0-t,[3]; Mean/Median (n=3),3.134 µM·h
same,AUC % Extrapolation to infinity,[3]; Mean/Median (n=3),1.9%
same,C0/Cmax,[3]; Mean/Median (n=3),1813 ng/mL
same,CL/CL_F,[3]; Mean/Median (n=3),9.30 mL/min/kg
same,Clast,[3]; Mean/Median (n=3),54.6 ng/mL
same,t1/2,[3]; Mean/Median (n=3),1.22 h
same,tlast,[3]; Mean/Median (n=3),8.00 h
same,tmax,[3]; Mean/Median (n=3),1.00 h
same,Cmax,[3]; Mean/Median (n=3),1070 nM
same,AUC0-t,[3]; individual samples 1-3,3.238 µM·h and 3.368 µM·h and 2.797 µM·h
same,AUC % Extrapolation to infinity,[3]; individual samples 1-3,3.1% and 0.9% and 1.6%
same,AUCinf,[3]; individual samples 1-3,5664 ng hr mL^−1 and 5759 ng hr mL^−1 and 4814 ng hr mL^−1 and 3342 nM hr and 3398 nM hr and 2841 nM hr
same,C0/Cmax,[3]; individual samples 1-3,1989 ng/mL and 1903 ng/mL and 1546 ng/mL
same,CL/CL_F,[3]; individual samples 1-3,9 mL min^−1 kg^−1 (2×) and 10 mL min^−1 kg^−1
same,Clast,[3]; individual samples 1-3,85.3 ng/mL and 34.4 ng/mL and 44.2 ng/mL
same,t1/2,[3]; individual samples 1-3,1.43 h and 1.05 h and 1.17 h
same,tlast,[3]; individual samples 1-3,8.00 h
same,tmax,[3]; individual samples 1-3,1.00 h (2×) and 2.00 h
same,Cmax,[3]; individual samples 1-3,1170 nM and 1120 nM and 912 nM
same,"resistance induction, fold-increase of MIC compared to initial MIC",[4],low levels of resistance induction
same,"resistance induction, fold-increase of MIC compared to initial MIC",[5],did not induce resistance
same,adverse effects and gross morphology,[6],No adverse effects and normal gross morphology
same,tolerability,[6],well tolerated
